# According to article PMC5218480 (PLoS ONE, 2017):
# System: MV-4-11 cells
# Assay: Gene expression microarray analysis (Affymetrix PrimeView) and GSEA
# Type: cell-based, human
# Parameters: RFU PODN (11730768_x_at) / Fold change /veh PODN (11730768_x_at) / RFU LINC00158 (11744669_a_at) / Fold change /veh LINC00158 (11744669_a_at) / RFU DUSP10 (11751237_a_at) / Fold change /veh DUSP10 (11751237_a_at) / RFU ID3 (11757404_x_at) / Fold change /veh ID3 (11757404_x_at) / RFU PLEKHG5 (11737974_s_at) / Fold change /veh PLEKHG5 (11737974_s_at) / RFU LRRC4B (11730491_at) / Fold change /veh LRRC4B (11730491_at) / RFU GIMAP4 (11747438_a_at) / Fold change /veh GIMAP4 (11747438_a_at) / RFU KRT8 (11758183_x_at) / Fold change /veh KRT8 (11758183_x_at) / RFU CNN1 (11734310_a_at) / Fold change /veh CNN1 (11734310_a_at) / RFU VPS37D (11726825_at) / Fold change /veh VPS37D (11726825_at) / RFU C10orf10 (11716522_x_at) / Fold change /veh C10orf10 (11716522_x_at) / RFU KIR2DL2 /// KIR2DL4 /// KIR2DL5A /// KIR2DL5B /// KIR2DS1 /// KIR2DS2 /// KIR2DS3 /// KIR2DS4 /// KIR3DL3 /// KIR3DL3 /// KIR3DS1 (11738374_at) / Fold change /veh KIR2DL2 /// KIR2DL4 /// KIR2DL5A /// KIR2DL5B /// KIR2DS1 /// KIR2DS2 /// KIR2DS3 /// KIR2DS4 /// KIR3DL3 /// KIR3DL3 /// KIR3DS1 (11738374_at) / RFU C1QL1 (11718748_at) / Fold change /veh C1QL1 (11718748_at) / RFU TMPRSS4 (11747572_a_at) / Fold change /veh TMPRSS4 (11747572_a_at) / RFU HAMP (11756126_x_at) / Fold change /veh HAMP (11756126_x_at) / RFU RNFT2 (11725882_a_at) / Fold change /veh RNFT2 (11725882_a_at) / RFU NR4A2 (11747474_a_at) / Fold change /veh NR4A2 (11747474_a_at) / RFU ABCC12 (11746883_a_at) / Fold change /veh ABCC12 (11746883_a_at) / RFU TMEM136 (11760407_x_at) / Fold change /veh TMEM136 (11760407_x_at) / RFU CLDN22 /// WWC2 (11732394_at) / Fold change /veh CLDN22 /// WWC2 (11732394_at) / RFU HLA-DPB1 (11760878_x_at) / Fold change /veh HLA-DPB1 (11760878_x_at) / RFU SPINT1 (11716480_a_at) / Fold change /veh SPINT1 (11716480_a_at) / RFU GAP43 (11754022_s_at) / Fold change /veh GAP43 (11754022_s_at) / RFU A4GNT (11735810_at) / Fold change /veh A4GNT (11735810_at) / RFU PRB3 (11715151_x_at) / Fold change /veh PRB3 (11715151_x_at) / RFU TUBB4B (11761932_at) / Fold change /veh TUBB4B (11761932_at) / RFU CAPN14 (11732068_a_at) / Fold change /veh CAPN14 (11732068_a_at) / RFU TMCC2 (11721928_a_at) / Fold change /veh TMCC2 (11721928_a_at) / RFU IRGQ (11745062_a_at) / Fold change /veh IRGQ (11745062_a_at) / RFU FAM174B (11720279_a_at) / Fold change /veh FAM174B (11720279_a_at) / RFU TMPRSS4 (11748680_a_at) / Fold change /veh TMPRSS4 (11748680_a_at) / RFU FAM212B (11763350_a_at) / Fold change /veh FAM212B (11763350_a_at) / RFU PLEKHG5 (11743358_a_at) / Fold change /veh PLEKHG5 (11743358_a_at) / RFU ZSCAN30 (11745921_a_at) / Fold change /veh ZSCAN30 (11745921_a_at) / RFU CMKLR1 (11741424_a_at) / Fold change /veh CMKLR1 (11741424_a_at) / RFU LOC101060620 /// MAPK8IP1 (11723275_at) / Fold change /veh LOC101060620 /// MAPK8IP1 (11723275_at) / RFU SPTSSB (11747773_x_at) / Fold change /veh SPTSSB (11747773_x_at) / RFU PRSS12 (11739890_at) / Fold change /veh PRSS12 (11739890_at) / RFU BIN1 (11741810_x_at) / Fold change /veh BIN1 (11741810_x_at) / RFU WNT11 (11732464_a_at) / Fold change /veh WNT11 (11732464_a_at) / RFU C10orf10 (11716521_a_at) / Fold change /veh C10orf10 (11716521_a_at) / RFU C5orf56 (11738089_at) / Fold change /veh C5orf56 (11738089_at) / RFU CYB561 (11721691_x_at) / Fold change /veh CYB561 (11721691_x_at) / RFU ANKRD19P (11752326_a_at) / Fold change /veh ANKRD19P (11752326_a_at) / RFU OR2T12 /// OR2T33 /// OR2T8 (11738714_s_at) / Fold change /veh OR2T12 /// OR2T33 /// OR2T8 (11738714_s_at) / RFU VCAN (11748164_a_at) / Fold change /veh VCAN (11748164_a_at) / RFU JSRP1 (11732532_at) / Fold change /veh JSRP1 (11732532_at) / RFU KRTAP10-11 (11738290_x_at) / Fold change /veh KRTAP10-11 (11738290_x_at) / RFU MYO3A (11730013_a_at) / Fold change /veh MYO3A (11730013_a_at) / RFU EBF3 (11725865_a_at) / Fold change /veh EBF3 (11725865_a_at) / RFU CAMK2N1 (11719241_x_at) / Fold change /veh CAMK2N1 (11719241_x_at) / RFU C5orf56 (11738088_a_at) / Fold change /veh C5orf56 (11738088_a_at) / RFU OLFML3 (11715873_a_at) / Fold change /veh OLFML3 (11715873_a_at) / RFU LOC100653217 /// NTM (11731650_a_at) / Fold change /veh LOC100653217 /// NTM (11731650_a_at) / RFU MAPK11 (11762145_a_at) / Fold change /veh MAPK11 (11762145_a_at) / RFU FIZ1 (11724087_x_at) / Fold change /veh FIZ1 (11724087_x_at) / RFU OASL (11726364_x_at) / Fold change /veh OASL (11726364_x_at) / RFU SOX15 (11748057_x_at) / Fold change /veh SOX15 (11748057_x_at) / RFU CD79A (11719716_a_at) / Fold change /veh CD79A (11719716_a_at) / RFU HIST1H1D (11736915_at) / Fold change /veh HIST1H1D (11736915_at) / RFU CASKIN2 (11723855_a_at) / Fold change /veh CASKIN2 (11723855_a_at) / RFU LOC730098 (11760151_x_at) / Fold change /veh LOC730098 (11760151_x_at) / RFU OR4N2 (11742367_at) / Fold change /veh OR4N2 (11742367_at) / RFU PRRT2 (11749266_a_at) / Fold change /veh PRRT2 (11749266_a_at) / RFU SNX32 (11753110_a_at) / Fold change /veh SNX32 (11753110_a_at) / RFU CDHR5 (11726645_a_at) / Fold change /veh CDHR5 (11726645_a_at) / RFU RCAN1 (11760418_a_at) / Fold change /veh RCAN1 (11760418_a_at) / RFU FAM167A (11723789_a_at) / Fold change /veh FAM167A (11723789_a_at) / RFU FAM26E (11764081_at) / Fold change /veh FAM26E (11764081_at) / RFU ISYNA1 (11749810_s_at) / Fold change /veh ISYNA1 (11749810_s_at) / RFU ACY1 (11761880_at) / Fold change /veh ACY1 (11761880_at) / RFU 11764098_at / Fold change /veh 11764098_at / RFU SAMD14 (11745864_x_at) / Fold change /veh SAMD14 (11745864_x_at) / RFU NPB (11741838_a_at) / Fold change /veh NPB (11741838_a_at) / RFU TMPRSS6 (11731388_a_at) / Fold change /veh TMPRSS6 (11731388_a_at) / RFU KRTAP10-2 (11738614_at) / Fold change /veh KRTAP10-2 (11738614_at) / RFU ARHGAP8 /// PRR5-ARHGAP8 (11727945_x_at) / Fold change /veh ARHGAP8 /// PRR5-ARHGAP8 (11727945_x_at) / RFU KRTAP5-7 /// NADSYN1 (11734609_at) / Fold change /veh KRTAP5-7 /// NADSYN1 (11734609_at) / RFU RASL12 (11751679_a_at) / Fold change /veh RASL12 (11751679_a_at) / RFU CDKN2B (11736163_a_at) / Fold change /veh CDKN2B (11736163_a_at) / RFU PRF1 (11729649_at) / Fold change /veh PRF1 (11729649_at) / RFU, ZNF638 /// ZNF638-IT1 / Fold change vs veh, ZNF638 /// ZNF638-IT1 / RFU, PANK3 / Fold change vs veh, PANK3 / RFU, SH3YL1 / Fold change vs veh, SH3YL1 / RFU, ZEB2 / Fold change vs veh, ZEB2 / RFU, NRIP1 / Fold change vs veh, NRIP1 / RFU, PTTG1IP / Fold change vs veh, PTTG1IP / RFU, CAPN2 / Fold change vs veh, CAPN2 / RFU, MED14 / Fold change vs veh, MED14 / RFU, SNORA58 / Fold change vs veh, SNORA58 / RFU, C1orf63 / Fold change vs veh, C1orf63 / RFU, LRRFIP1 / Fold change vs veh, LRRFIP1 / RFU, NDUFAF7 / Fold change vs veh, NDUFAF7 / RFU, SLC12A2 / Fold change vs veh, SLC12A2 / RFU, IBTK / Fold change vs veh, IBTK / RFU, ESF1 / Fold change vs veh, ESF1 / Fold change vs veh, TMEM50B / RFU, TAOK1 / Fold change vs veh, TAOK1 / RFU, ACBD3 / Fold change vs veh, ACBD3 / RFU, TMA16 / Fold change vs veh, TMA16 / RFU, RWDD3 / Fold change vs veh, RWDD3 / RFU, BCAT1 / Fold change vs veh, BCAT1 / RFU, EDEM3 / Fold change vs veh, EDEM3 / RFU, TMEM33 / Fold change vs veh, TMEM33 / RFU, WDR75 / Fold change vs veh, WDR75 / RFU, AHCTF1 / Fold change vs veh, AHCTF1 / RFU, TFRC / Fold change vs veh, TFRC / RFU, ZDHHC17 / Fold change vs veh, ZDHHC17 / RFU, NOM1 / Fold change vs veh, NOM1 / RFU, ARL8B / Fold change vs veh, ARL8B / RFU, ZBTB11 / Fold change vs veh, ZBTB11 / RFU, TAMM41 / Fold change vs veh, TAMM41 / RFU, KIAA1704 /// LOC100996395 / Fold change vs veh, KIAA1704 /// LOC100996395 / RFU, ING1 / Fold change vs veh, ING1 / RFU, TRMT61B / Fold change vs veh, TRMT61B / RFU, FUBP3 / Fold change vs veh, FUBP3 / RFU, TP53 / Fold change vs veh, TP53 / RFU, TNKS2 / Fold change vs veh, TNKS2 / RFU, ZFP14 / Fold change vs veh, ZFP14 / RFU, ACTR2 / Fold change vs veh, ACTR2 / RFU, PPP3R1 / Fold change vs veh, PPP3R1 / RFU, PIK3R1 / Fold change vs veh, PIK3R1 / RFU, HNRNPA1 / Fold change vs veh, HNRNPA1 / RFU, RNF170 / Fold change vs veh, RNF170 / RFU, ZNF28 / Fold change vs veh, ZNF28 / RFU, RNGTT / Fold change vs veh, RNGTT / RFU, OGT / Fold change vs veh, OGT / RFU, BRD1 / Fold change vs veh, BRD1 / RFU, MARS / Fold change vs veh, MARS / RFU, ZNF655 / Fold change vs veh, ZNF655 / RFU, FAHD1 / Fold change vs veh, FAHD1 / RFU, BDP1 / Fold change vs veh, BDP1 / RFU, LRRCC1 / Fold change vs veh, LRRCC1 / RFU, ARID1A / Fold change vs veh, ARID1A / RFU, ZNF146 / Fold change vs veh, ZNF146 / RFU, ZNF330 / Fold change vs veh, ZNF330 / RFU, GPN3 / Fold change vs veh, GPN3 / RFU, C9orf123 / Fold change vs veh, C9orf123 / RFU, N4BP2L2 / Fold change vs veh, N4BP2L2 / RFU, ARFIP1 / Fold change vs veh, ARFIP1 / RFU, FAM179B / Fold change vs veh, FAM179B / RFU, BCL10 / Fold change vs veh, BCL10 / RFU, UHRF1BP1L / Fold change vs veh, UHRF1BP1L / RFU, BET1 / Fold change vs veh, BET1 / RFU, CNOT2 / Fold change vs veh, CNOT2 / RFU, ZNF268 / Fold change vs veh, ZNF268 / Fold change vs veh, ZNF507 / RFU, DGCR2 / Fold change vs veh, DGCR2 / RFU, WDSUB1 / Fold change vs veh, WDSUB1 / Fold change vs veh, HSP90B1 /// MIR3652 / RFU, ADSS / Fold change vs veh, ADSS / RFU, GK / Fold change vs veh, GK / RFU, ZNF148 / Fold change vs veh, ZNF148 / RFU, TAF9 / Fold change vs veh, TAF9 / RFU, SLC1A5 / Fold change vs veh, SLC1A5 / RFU, SLMO2 / Fold change vs veh, SLMO2 / RFU, ABCC4 / Fold change vs veh, ABCC4 / RFU, LOC101060439 /// RAP1B / Fold change vs veh, LOC101060439 /// RAP1B / RFU, RFX7 / Fold change vs veh, RFX7 / RFU, GTPBP10 / Fold change vs veh, GTPBP10 / RFU, CNEP1R1 / Fold change vs veh, CNEP1R1 / RFU, BIVM-ERCC5 /// ERCC5 / Fold change vs veh, BIVM-ERCC5 /// ERCC5 / RFU, ILF3 / Fold change vs veh, ILF3 / RFU 11762660_at / Fold change /veh 11762660_at / RFU VCAN (11757783_s_at) / Fold change /veh VCAN (11757783_s_at) / RFU DDX43 (11728927_at) / Fold change /veh DDX43 (11728927_at) / RFU KRT8 (11758188_x_at) / Fold change /veh KRT8 (11758188_x_at) / RFU NKD1 (11759106_at) / Fold change /veh NKD1 (11759106_at) / RFU SRD5A1 (11742802_a_at) / Fold change /veh SRD5A1 (11742802_a_at) / RFU TPSAB1 /// TPSB2 (11721975_s_at) / Fold change /veh TPSAB1 /// TPSB2 (11721975_s_at) / RFU GSTM3 (11746129_a_at) / Fold change /veh GSTM3 (11746129_a_at) / RFU IL23R (11737362_x_at) / Fold change /veh IL23R (11737362_x_at) / RFU TMEM51 (11727254_a_at) / Fold change /veh TMEM51 (11727254_a_at) / RFU PIWIL2 (11732686_x_at) / Fold change /veh PIWIL2 (11732686_x_at) / RFU ORM1 (11744905_x_at) / Fold change /veh ORM1 (11744905_x_at) / RFU CCDC152 (11743942_at) / Fold change /veh CCDC152 (11743942_at) / RFU ECM1 (11717891_a_at) / Fold change /veh ECM1 (11717891_a_at) / RFU IL23R (11748794_a_at) / Fold change /veh IL23R (11748794_a_at) / RFU TNFAIP8L3 (11732012_x_at) / Fold change /veh TNFAIP8L3 (11732012_x_at) / RFU MBOAT4 (11741988_at) / Fold change /veh MBOAT4 (11741988_at) / RFU 11764193_at / Fold change /veh 11764193_at / RFU TMEM53 (11763286_at) / Fold change /veh TMEM53 (11763286_at) / RFU MAGEB2 (11727129_at) / Fold change /veh MAGEB2 (11727129_at) / RFU TMEM200A (11744735_a_at) / Fold change /veh TMEM200A (11744735_a_at) / RFU CCDC152 (11751479_a_at) / Fold change /veh CCDC152 (11751479_a_at) / RFU FAM211A (11726209_a_at) / Fold change /veh FAM211A (11726209_a_at) / RFU RGS16 (11746705_a_at) / Fold change /veh RGS16 (11746705_a_at) / RFU VCAN (11755009_s_at) / Fold change /veh VCAN (11755009_s_at) / RFU RHOB (11743442_s_at) / Fold change /veh RHOB (11743442_s_at) / RFU RGS16 (11720943_a_at) / Fold change /veh RGS16 (11720943_a_at) / RFU RGS16 (11720944_at) / Fold change /veh RGS16 (11720944_at) / RFU, VPS4B / Fold change vs veh, VPS4B / RFU, CREB1 / Fold change vs veh, CREB1 / RFU, DNAJC13 / Fold change vs veh, DNAJC13 / RFU, GNAQ / Fold change vs veh, GNAQ / RFU, CDK5R1 / Fold change vs veh, CDK5R1 / RFU, ZRANB3 / Fold change vs veh, ZRANB3 / RFU, CUL4A / Fold change vs veh, CUL4A / RFU, CCNY / Fold change vs veh, CCNY / RFU, UFL1 / Fold change vs veh, UFL1 / RFU, COG3 / Fold change vs veh, COG3 / RFU, DIAPH2 / Fold change vs veh, DIAPH2 / RFU, SKA2 / Fold change vs veh, SKA2 / RFU, AFF3 / Fold change vs veh, AFF3 / RFU, LMF1 / Fold change vs veh, LMF1 / RFU, IPO11 / Fold change vs veh, IPO11 / RFU, DFFB / Fold change vs veh, DFFB / RFU, FOXP1 / Fold change vs veh, FOXP1 / RFU, CARD8 / Fold change vs veh, CARD8 / RFU, STRN3 / Fold change vs veh, STRN3 / RFU, ADK / Fold change vs veh, ADK / RFU, RASSF2 / Fold change vs veh, RASSF2 / RFU, WIPF1 / Fold change vs veh, WIPF1 / RFU, LARP1B / Fold change vs veh, LARP1B / RFU, RASA1 / Fold change vs veh, RASA1 / RFU, RB1 / Fold change vs veh, RB1 / RFU, PPFIA1 / Fold change vs veh, PPFIA1 / RFU, MAT2A / Fold change vs veh, MAT2A / RFU, CCT5 / Fold change vs veh, CCT5 / RFU, WDR92 / Fold change vs veh, WDR92 / RFU, CUX1 / Fold change vs veh, CUX1 / RFU, TTC7A / Fold change vs veh, TTC7A / RFU, TMEM135 / Fold change vs veh, TMEM135 / RFU, DEPTOR / Fold change vs veh, DEPTOR / RFU, CPM / Fold change vs veh, CPM / RFU, DNAJB6 / Fold change vs veh, DNAJB6 / RFU, CACNA2D3 / Fold change vs veh, CACNA2D3 / RFU, DTX4 / Fold change vs veh, DTX4 / RFU, TFCP2 / Fold change vs veh, TFCP2 / RFU, GMCL1 /// GMCL1P1 / Fold change vs veh, GMCL1 /// GMCL1P1 / RFU, AEBP2 / Fold change vs veh, AEBP2 / RFU, SNHG1 /// SNORD22 /// SNORD25 /// SNORD26 /// SNORD27 /// SNORD28 /// SNORD29 /// SNORD31 / Fold change vs veh, SNHG1 /// SNORD22 /// SNORD25 /// SNORD26 /// SNORD27 /// SNORD28 /// SNORD29 /// SNORD31 / Fold change (Aza/veh), C12orf56 (ProbeSet 11735607_a_at) / Fold change (ACY-1035/veh), C12orf56 (ProbeSet 11735607_a_at) / Fold change (Aza/veh), FGFR1OP (ProbeSet 11751329_s_at) / Fold change (ACY-1035/veh), FGFR1OP (ProbeSet 11751329_s_at) / Fold change (Aza/veh), VPS36 (ProbeSet 11739960_a_at) / Fold change (ACY-1035/veh), VPS36 (ProbeSet 11739960_a_at) / RFU SYPL1 (11715823_x_at) / Fold change /veh SYPL1 (11715823_x_at) / RFU IGFBP7 (11715501_s_at) / Fold change /veh IGFBP7 (11715501_s_at) / RFU REEP3 (11722064_at) / Fold change /veh REEP3 (11722064_at) / RFU IGLL1 (11728026_x_at) / Fold change /veh IGLL1 (11728026_x_at): dose or concentration left out as unconfirmed
# Conditions: ProbeSet 11721521_at; LIST B
smiles,measurement,value
Nc1ncn([C@@H]2O[C@H](CO)[C@@H](O)[C@H]2O)c(=O)n1 [azacitidine],"RFU, ZDHHC17",48.06 RFU
